Results: paper PMC7822819, “Discovery of a new class of integrin antibodies for fibrosis” (Scientific Reports, 2021)
Like-named read-outs stand apart in the source and are kept apart here.

Key:
human α5β1 = target: T1, human α5β1 (Homo sapiens, UniProt P05556+P08648); assay: AlphaLISA integrin-ligand binding assay; assay type: biochemical
T1 construct: hα5 1 995; hβ1 1 728; made in house; host or cells: Expi293
Protocol: (§1) In the AlphaLISA integrin assays, we used a HEPES based buffer (25 mM HEPES pH 7.4, 137 mM NaCl, 1 mM MgCl2, 1 mM MnCl2, 2 mM CaCl2, 2.7 mM KCl, and 0.05% Tween-20). Optimal assay conditions were determined with a titration of the reagents for signal noise ratio (S/N), linear range, etc. For the respective integrins, we used the final concentrations described in Supplemental Table S3. Briefly, the testing antibody (8 μL) was added as a 4x (of Final testing concentration) solution in the HEPES buffer described previously into a 384w AlphaPlate (Perkin Elmer #6005350). Then the integrin and ligand were added sequentially as 8x (4 μL each). Plates were sealed and incubated at room temperature for 2 h. Then 4 × acceptor bead solution (8 μL) was added, and the plates were resealed and incubated at RT for 1 h. Finally, 4 × (8 μL) donor beads solution was added in a darkened room and incubated for 45 min at room temperature. Plates were read on the Envision (Perkin Elmer) in AlphaScreen mode within 3 h of donor bead addition.
(§2) Supplemental Table S3. integrin AlphaLIS A assay reagents and conditions Human A l phal i sa Inte gri n A ssays: Fi nal Condi ti ons […]
(§3) ( batch de pe nde nt) anti body A l phaLi sa A cce ptor havb1 1. 4 nM 1. 0 nMα - Fi brone cti n human Fi brone cti n n/a A cce ptor be ads/ Pe rki n 10. 0 ug/ m 10. 0 ug/ m […]
(§4) havb3 3. 0 nM 10. 0 nMhuman V i trone cti n- GST α - GS T A cce p t o r ug/ m Stre ptavi di n Donor ug/ m tagge d n/a be ads/ Pe rki n 15. 0 l be ads/ Pe rki n El me r 15. 0 l […]
(§5) havb6 0. 1 nM 0. 5 nM 3. […]
(§6) Mouse A l phal i sa Inte gri n A ssays: Fi nal Condi ti ons […]
(§7) m aV b 1 4. 3 nM 1. 0 nMmouse f i brone cti n A bcam α - Fi brone cti n ( Rabbi t […]
(§8) 0 nM 5. […] 0nM be ads/ Pe rki n El me r […]
(§9) m aV b 6 1. 4 nM 2. 5 nMmouse LA P- 6Hi s α - 6x HI S / P e rk i n El m e r ug/ m ug/ m m aV b 8 1. 0 nM 2. 5 nMChe mpartne rn/a( A L 128) 15 l 15 l

human αvβ3 = target: T2, human αvβ3 (Homo sapiens, UniProt P05106+P06756); assay: AlphaLISA integrin-ligand binding assay; assay type: biochemical
T2 construct: hαV 1 992; hβ3 1 718; made in house; host or cells: Expi293
Protocol: as §1, §2, §3, §4, §5, §6, §7, §8, §9

human αvβ5 = target: T3, human αvβ5 (Homo sapiens, UniProt P06756+P18084); assay: AlphaLISA integrin-ligand binding assay; assay type: biochemical
T3 construct: hαV 1 992; hβ5 1 719; made in house; host or cells: Expi293
Protocol: as §1, §2, §3, §4, §5, §6, §7, §8, §9

mouse αvβ5 = target: T4, mouse αvβ5 (Mus musculus, UniProt O70309+P43406); assay: AlphaLISA integrin-ligand binding assay; assay type: biochemical; conditions: Fig. 4B; read-out: IC50 Mouse integrin AlphaLISA assays: mαvβ5
T4 construct: mαV 1 988; m β5 1 719; made in house; host or cells: Expi293
Protocol: as §1, §2, §3, §4, §5, §6, §7, §8, §9

[1] = tested on: normal human lung fibroblasts; assay: TGFβ-induced αSMA high-content imaging; assay type: cell-based; conditions: 10 μM, 30 min pre-treatment, TGFβ 5 ng/mL, 48 h
Protocol: (§10) Normal human lung fibroblasts (Lonza) and Primary Human IPF Lung Parenchymal Fibroblasts (Donor2) (BioIVT, #PCR-70-0214) were incubated at 37 °C and 5% CO2. To induce fibrotic response in primary cells, a final concentration of 5 ng/ml of recombinant human TGFβ1 (BioLegend, #580702) was added to the culture media and treated for 24 ~ 48 h. Anti-TGFβ neutralizing antibody (1D11) and the isotype control mouse IgG1 were from BioXcell. SB-525334 and bleomycin were from Sigma. MK-0429 was synthesized by Merck & Co., Inc., Kenilworth, NJ, USA. CHOK1-integrin stable lines were cultured in DMEM/F12, Glutamax (Gibco #10565018), 10% FBS (Gibco 310091148), 1 × Pen/Strep (Gibco 315140-148), and 6 ug/mL Puromycin (Gibco #A1113803).
(§11) Primary cells (passage 3–5) were grown on Cell carrier Ultra, col1 coated 96-well plates (Perkin Elmer, #6055700) at a density of 25,000 cells/well. Once the cells adhere, they were starved in serum free media for 24 h followed by addition of treatments i.e. 5 ng/mL TGFβ (Biolegend #580702) ± inhibitors. Cells were pre-treated with inhibitors for 30 min prior to the addition of TGFβ stimulation. 48hours post treatment, the cells were fixed in 4% methanol free paraformaldehyde (ThermoFisher Scientific #28908) for 20 min at room temperature and incubated with anti-alpha smooth muscle Actin antibody (Abcam #ab7817) at 1:4000 overnight at 4 °C. […]

[2] = tested on: IPF patient lung fibroblasts; assay: TGFβ-induced αSMA high-content imaging; assay type: cell-based, human; conditions: even at 10 μM
Protocol: as §10, §11

[3] = tested on: diabetic nephropathy model; parameters: method as in PMID 28971604; conditions: cited from earlier work

T1 sequence (P08648 42-995): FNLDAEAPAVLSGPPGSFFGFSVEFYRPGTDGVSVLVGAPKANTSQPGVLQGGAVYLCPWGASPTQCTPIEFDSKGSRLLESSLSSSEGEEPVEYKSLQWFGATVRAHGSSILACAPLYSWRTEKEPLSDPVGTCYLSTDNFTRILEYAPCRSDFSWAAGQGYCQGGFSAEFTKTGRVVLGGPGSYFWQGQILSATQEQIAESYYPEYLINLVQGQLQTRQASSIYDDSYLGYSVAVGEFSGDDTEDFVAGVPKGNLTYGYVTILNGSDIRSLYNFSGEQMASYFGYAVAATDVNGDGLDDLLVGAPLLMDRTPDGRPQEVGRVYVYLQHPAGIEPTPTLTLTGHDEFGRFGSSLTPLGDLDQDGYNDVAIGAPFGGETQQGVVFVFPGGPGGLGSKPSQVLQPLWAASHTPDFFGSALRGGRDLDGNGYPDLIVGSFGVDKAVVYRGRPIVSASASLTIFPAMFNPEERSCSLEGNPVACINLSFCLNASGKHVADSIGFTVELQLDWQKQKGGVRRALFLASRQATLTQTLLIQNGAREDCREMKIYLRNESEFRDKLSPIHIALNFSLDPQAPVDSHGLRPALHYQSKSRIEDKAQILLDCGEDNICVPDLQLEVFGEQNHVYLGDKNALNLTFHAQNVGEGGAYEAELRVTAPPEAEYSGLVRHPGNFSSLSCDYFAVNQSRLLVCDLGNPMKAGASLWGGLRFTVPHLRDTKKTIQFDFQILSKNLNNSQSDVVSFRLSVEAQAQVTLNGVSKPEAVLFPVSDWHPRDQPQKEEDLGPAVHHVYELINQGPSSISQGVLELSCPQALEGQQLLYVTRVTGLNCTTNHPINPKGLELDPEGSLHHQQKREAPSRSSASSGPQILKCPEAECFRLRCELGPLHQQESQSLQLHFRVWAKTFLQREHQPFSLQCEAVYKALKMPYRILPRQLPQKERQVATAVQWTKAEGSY
T1 sequence (P05556 21-728): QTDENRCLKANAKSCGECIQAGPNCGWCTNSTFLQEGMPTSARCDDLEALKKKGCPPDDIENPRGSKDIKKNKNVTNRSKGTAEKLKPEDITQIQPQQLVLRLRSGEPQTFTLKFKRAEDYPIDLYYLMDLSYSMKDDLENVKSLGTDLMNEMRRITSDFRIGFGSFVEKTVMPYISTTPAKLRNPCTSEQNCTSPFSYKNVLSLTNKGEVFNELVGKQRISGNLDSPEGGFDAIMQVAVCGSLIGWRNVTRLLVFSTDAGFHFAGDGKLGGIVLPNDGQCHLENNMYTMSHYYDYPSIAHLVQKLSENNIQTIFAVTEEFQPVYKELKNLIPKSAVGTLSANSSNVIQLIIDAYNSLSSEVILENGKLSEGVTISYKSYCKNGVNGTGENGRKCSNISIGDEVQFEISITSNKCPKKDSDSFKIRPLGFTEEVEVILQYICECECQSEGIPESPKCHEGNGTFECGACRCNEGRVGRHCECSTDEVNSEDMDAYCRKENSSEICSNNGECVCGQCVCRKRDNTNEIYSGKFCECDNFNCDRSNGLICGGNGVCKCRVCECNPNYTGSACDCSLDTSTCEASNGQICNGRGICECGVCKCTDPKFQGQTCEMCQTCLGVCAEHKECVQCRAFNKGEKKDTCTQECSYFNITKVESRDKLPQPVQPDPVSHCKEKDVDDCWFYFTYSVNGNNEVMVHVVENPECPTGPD
T2 sequence (P06756 31-992): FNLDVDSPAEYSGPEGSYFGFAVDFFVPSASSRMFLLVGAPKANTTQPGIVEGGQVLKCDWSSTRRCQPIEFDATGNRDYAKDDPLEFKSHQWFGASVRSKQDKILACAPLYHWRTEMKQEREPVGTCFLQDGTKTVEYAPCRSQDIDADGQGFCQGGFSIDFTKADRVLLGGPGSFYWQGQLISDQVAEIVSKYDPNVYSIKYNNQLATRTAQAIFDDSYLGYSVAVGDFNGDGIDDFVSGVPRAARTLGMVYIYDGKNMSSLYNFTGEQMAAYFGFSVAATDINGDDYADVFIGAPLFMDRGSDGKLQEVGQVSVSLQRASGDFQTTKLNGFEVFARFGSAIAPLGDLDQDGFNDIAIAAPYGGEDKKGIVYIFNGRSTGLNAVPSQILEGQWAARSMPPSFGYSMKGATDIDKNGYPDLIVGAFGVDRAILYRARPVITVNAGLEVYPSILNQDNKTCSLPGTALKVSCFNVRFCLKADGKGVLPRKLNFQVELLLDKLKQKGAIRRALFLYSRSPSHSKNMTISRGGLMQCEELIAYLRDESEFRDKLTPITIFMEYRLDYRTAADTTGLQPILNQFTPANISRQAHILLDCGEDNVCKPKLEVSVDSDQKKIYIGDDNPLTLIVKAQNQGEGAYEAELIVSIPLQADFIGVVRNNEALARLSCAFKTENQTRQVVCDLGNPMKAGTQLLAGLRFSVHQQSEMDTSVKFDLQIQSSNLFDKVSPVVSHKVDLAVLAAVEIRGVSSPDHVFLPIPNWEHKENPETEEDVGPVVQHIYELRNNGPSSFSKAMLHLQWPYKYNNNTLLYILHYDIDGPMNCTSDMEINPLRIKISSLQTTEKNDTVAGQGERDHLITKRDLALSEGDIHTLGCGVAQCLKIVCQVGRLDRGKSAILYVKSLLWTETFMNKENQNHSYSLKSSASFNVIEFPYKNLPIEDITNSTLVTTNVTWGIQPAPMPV
T2 sequence (P05106 27-718): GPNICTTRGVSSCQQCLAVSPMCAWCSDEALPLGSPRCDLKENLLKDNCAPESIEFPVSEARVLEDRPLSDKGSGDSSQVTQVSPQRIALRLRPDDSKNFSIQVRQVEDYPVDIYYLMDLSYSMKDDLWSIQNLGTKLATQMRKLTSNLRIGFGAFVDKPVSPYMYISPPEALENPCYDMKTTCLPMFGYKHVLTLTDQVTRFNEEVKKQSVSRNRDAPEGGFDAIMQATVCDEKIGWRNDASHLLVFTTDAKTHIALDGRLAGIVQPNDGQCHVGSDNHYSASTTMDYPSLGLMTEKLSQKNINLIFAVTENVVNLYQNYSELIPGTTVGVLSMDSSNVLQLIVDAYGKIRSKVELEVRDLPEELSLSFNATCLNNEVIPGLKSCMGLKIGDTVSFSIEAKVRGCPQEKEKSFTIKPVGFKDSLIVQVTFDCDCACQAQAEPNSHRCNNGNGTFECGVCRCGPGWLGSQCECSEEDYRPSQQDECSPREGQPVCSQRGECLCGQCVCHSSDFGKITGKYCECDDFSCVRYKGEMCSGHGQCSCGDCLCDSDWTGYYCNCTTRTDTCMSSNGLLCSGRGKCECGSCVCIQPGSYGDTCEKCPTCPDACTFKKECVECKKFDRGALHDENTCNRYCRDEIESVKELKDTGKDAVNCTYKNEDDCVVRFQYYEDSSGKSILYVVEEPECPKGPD
T3 sequence (P06756 31-992): as the sequence (P06756 31-992) above
T3 sequence (P18084 24-719): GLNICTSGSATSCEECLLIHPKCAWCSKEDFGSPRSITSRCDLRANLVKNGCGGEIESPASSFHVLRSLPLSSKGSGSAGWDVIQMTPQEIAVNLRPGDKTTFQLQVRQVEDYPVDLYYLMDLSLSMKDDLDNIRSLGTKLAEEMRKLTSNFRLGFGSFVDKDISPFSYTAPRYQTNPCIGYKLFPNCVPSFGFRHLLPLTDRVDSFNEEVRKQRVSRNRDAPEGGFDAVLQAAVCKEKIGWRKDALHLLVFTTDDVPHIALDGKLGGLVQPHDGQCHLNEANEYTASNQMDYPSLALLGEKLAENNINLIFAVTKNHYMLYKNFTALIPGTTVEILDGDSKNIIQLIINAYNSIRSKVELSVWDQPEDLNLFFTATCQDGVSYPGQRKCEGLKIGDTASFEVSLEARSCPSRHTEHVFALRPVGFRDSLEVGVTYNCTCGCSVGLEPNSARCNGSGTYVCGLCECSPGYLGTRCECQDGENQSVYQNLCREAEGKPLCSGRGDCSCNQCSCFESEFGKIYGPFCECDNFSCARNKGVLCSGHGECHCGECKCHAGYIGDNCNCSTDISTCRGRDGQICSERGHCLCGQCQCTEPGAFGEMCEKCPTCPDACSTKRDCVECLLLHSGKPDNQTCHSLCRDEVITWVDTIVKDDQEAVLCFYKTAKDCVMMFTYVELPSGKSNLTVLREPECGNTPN

- IC50 (human α5β1; Fig. 3D, assay optimisation, read-out: IC50 human α5β1 AlphaLISA): 17.3 nM
- IC50 (human α5β1; Fig. 4B, read-out: IC50 Human integrin AlphaLISA assays: hα5β1): 26.5 nM
- IC50 (human αvβ3; Fig. 3D, assay optimisation, read-out: IC50 human αvβ3 AlphaLISA): 0.15 nM
- IC50 (human αvβ3; Fig. 4B, read-out: IC50 Human integrin AlphaLISA assays: hαvβ3): 1.6 nM
- IC50 (human αvβ5; Fig. 3D, assay optimisation, read-out: IC50 human αvβ5 AlphaLISA): 9.9 nM
- IC50 (human αvβ5; Fig. 4B, read-out: IC50 Human integrin AlphaLISA assays: hαvβ5): 2.9 nM
- IC50 (mouse αvβ5): 48.3 nM
Compound: COc1ccc(C(CC(=O)O)N2CCN(CCCc3ccc4c(n3)NCCC4)C2=O)cn1 (centres unmarked) [MK-0429]
- αSMA intensity and percentage of stimulated cells following TGFβ treatment [1]: significantly reduced
- Inhibition of αSMA induction [2]: minimal activity
- Proteinuria [3]: reduces
- Renal fibrosis [3]: reduces
